Values quoted from earlier work in patent US20250169496A1, “USE OF 2-AMINO-3-HYDROXY-3-METHYLBUTYRIC ACID AND/OR 2-AMINO-3-(4-HYDROXYPHENYL) BUTYRIC ACID” (NANJING TIANNONG BIOTECHNOLOGY CO., LTD., priority 2021, published 2025).

Test system: Lactobacihs arabinosu
Conditions: cited from earlier work

CC(C)(O)[C@H](N)C(=O)O [L-2-amino-3-hydroxy-3-methylbutyric acid]
Inhibition of the synthesis of valine: could inhibit the synthesis of valine
